Test results as given in patent US8552208B2, “Analogs of tetramic acid” (University of Tennesseee Research Foundation, priority 2007, dated 2013).
In brackets after ≈: the same amount, converted by molar mass. Read-outs that look alike come from different tables or passages of the source.

Assays:
[1] = test system: clinical isolates of MRSA (methicillin resistant S. aureus); type: cell-based
[2] = test system: Mycobacterium tuberculosis H37 Rv; experiment: Antibacterial activity assay (MIC, broth dilution); type: cell-based; conditions: H37RV, 168 h; Mycobacterium tuberculosis H37 Rv; […]; read-out: MIC, TB
[3] = test system: Propionibacterium acnes ATCC 6919; experiment: Antibacterial activity assay (MIC, broth dilution); type: cell-based; conditions: Cutibacterium acnes, ATCC6919; Propionibacterium acnes ATCC 6919; read-out: MIC, PA
[4] = test system: clinical isolates of MSSA (methicillin sensitive S. aureus); type: cell-based
[5] = test system: Bacillus subtilis ATCC 23857; experiment: Antibacterial activity assay (MIC, broth dilution); type: cell-based; conditions: ATCC23857; Bacillus subtilis ATCC 23857; read-out: MIC, BS
[6] = test system: Enterococcus faecalis ATCC 33186; experiment: Antibacterial activity assay (MIC, broth dilution); type: cell-based; conditions: ATCC33186; Enterococcus faecalis ATCC 33186; read-out: MIC, EF
[7] = test system: Methicillin sensitive Staphylococcus aureus 8325 ATCC 35556; experiment: Antibacterial activity assay (MIC, broth dilution); type: cell-based; conditions: ATCC 35556 / MSSA; Methicillin sensitive Staphylococcus aureus 8325 ATCC 35556; read-out: MIC, MSSA
[8] = test system: Bacillus anthracis Sterne 34F2; experiment: microbe, parasite or virus in culture; type: cell-based; conditions: STERNE34F2, read-out: MIC, BA
[9] = test system: Streptococcus pneumoniae DAW30EC; experiment: Antibacterial activity assay (MIC, broth dilution); type: cell-based; conditions: Streptococcus pneumoniae DAW30EC; read-out: MIC, SPn
[10] = test system: Methicillin Resistant Staphylococcus aureus ATCC 33591; experiment: Antibacterial activity assay (MIC, broth dilution); type: cell-based; conditions: ATCC 33591 / MRSA, read-out: MIC, MRSA
[11] = test system: Vero monkey kidney cell line (ATCC, CCL-81); experiment: Cytotoxicity assay (MTT); type: cell-based; conditions: IC50 divided by MIC against S. aureus 8325
Procedure: (§1) Cytotoxicity assays of drugs of Formula I of Example 3 and of Formula II of Example 5 were performed using the Vero monkey kidney cell line (ATCC, CCL-81). Vero cells were grown in tissue culture flasks in Dulbecco's Modified Eagle's Medium (ATCC) supplemented with 10% fetal bovine serum and maintained in a humidified incubator (37° C., 5% CO2). Cells were removed with a cell scraper, collected by centrifugation and then suspended in fresh medium at ˜10^6 cells/mL. The cell suspensions were dispensed into 96-well microtiter plates (100 μl/well) and incubated for 18 hours at 37° C. before being used for cytotoxicity assays. Test compounds were subsequently added at concentrations ranging from 400-0.024 μg/mL and 0.1% vol/vol of Triton-X 100, which causes 100% death of cells, was included as a control. After incubating cells and compounds for 72 hours in humid air (37° C., 5% CO2) the cytopathic effects of compounds were determined using the MTT Cell Proliferation Assay (ATCC, Cat No. 30-1010K). The MTT solution reagent (10 μl) was added to each well and plates incubated at 37° C. until sufficient purple color development occurred in cells (3 hours). After detergent cell lysis, the purple formazan product was measured at 570 nm in a Synergy HT Biotek microplate reader. IC50 data was obtained from dose response curves plotted from percentage activity versus log10 concentration using Graphpad prism 5.

Cytotoxicity assay (MTT) = type: cell-based, monkey; conditions: monkey; Vero cells, 72 hours, MTT; read-out: IC50 (Cytotoxicity): Concentration which reduces viability of Vero kidney cells by 50%
Procedure: as §1

[12] = test system: Streptococcus pyogenes ATCC 700294; experiment: Antibacterial activity assay (MIC, broth dilution); type: cell-based; conditions: ATCC700294; Streptococcus pyogenes ATCC 700294; read-out: MIC, SP
[13] = test system: MSSA (ATCC 25293) biofilm; experiment: Calgary Biofilm Device anti-biofilm activity; type: cell-based; conditions: Staphylococcus aureus; for MBC: read-out: MBEC = Minimum Biofilm Eradication Concentration
[14] = test system: S. epidermidis (RP62A) biofilm; experiment: Calgary Biofilm Device anti-biofilm activity; type: cell-based; conditions: Staphylococcus epidermidis; for MIC: read-out: MBIC = Minimum Biofilm Inhibitory Concentration
[15] = test system: MRSA (ATCC 35391) biofilm; experiment: Calgary Biofilm Device anti-biofilm activity; type: cell-based, Staphylococcus aureus; conditions: for MIC: read-out: MBIC = Minimum Biofilm Inhibitory Concentration

CCCCN1C(=O)/C(=C(/C)O)C(=O)[C@@H]1CC(C)C [Compound 13j, (S,Z)-1-butyl-3-(1-hydroxyethylidene)-5-isobutylpyrrolidine-2,4-dione]
Antibiotic MIC ([1]; isolate MRSA-1): 50 µg/mL | Antibiotic MIC ([1]; isolate MRSA-2): 25 µg/mL | Antibiotic MIC ([1]; isolate MRSA-3): 25 µg/mL | Antibiotic MIC ([1]; isolate MRSA-4): 25 µg/mL | Antibiotic MIC ([1]; isolate MRSA-5): 25 µg/mL | Antibiotic MIC ([1]; isolate MRSA-6): 25 µg/mL | Antibiotic MIC ([1]; isolate MRSA-7): 50 µg/mL | Antibiotic MIC ([1]; isolate MRSA-9): 6.25 µg/mL | Antibiotic MIC ([1]; isolate MRSA-10): 50 µg/mL | MIC [2]: 100 µg/mL (≈ 395 µM) | MIC [3]: 0.8 µg/mL (≈ 3.16 µM) | Antibiotic MIC ([4]; isolate MSSA-11): 12.5 µg/mL | Antibiotic MIC ([4]; isolate MSSA-12): 6.25 µg/mL | Antibiotic MIC ([4]; isolate MSSA-13): 12.5 µg/mL | Antibiotic MIC ([4]; isolate MSSA-14): 25 µg/mL | Antibiotic MIC ([4]; isolate MSSA-15): 3.12 µg/mL | Antibiotic MIC ([4]; isolate MSSA-16): 6.25 µg/mL | Antibiotic MIC ([4]; isolate MSSA-17): 6.25 µg/mL | Antibiotic MIC ([4]; isolate MSSA-18): 6.25 µg/mL | Antibiotic MIC ([4]; isolate MSSA-19): 3.12 µg/mL | Antibiotic MIC ([4]; isolate MSSA-20): 25 µg/mL | MIC [5]: 6.25 µg/mL (≈ 24.7 µM) | MIC [6]: 1.6 µg/mL (≈ 6.32 µM) | MIC [7]: 3.12 µg/mL (≈ 12.3 µM) | MIC [8]: 12.5 µg/mL (≈ 49.3 µM) | MIC [9]: 100 µg/mL (≈ 395 µM) | MIC [10]: 6.25 µg/mL (≈ 24.7 µM) | IC50/MIC = Selectivity (therapeutic) index [11]: 81.4 | IC50 at 72 h (Cytotoxicity assay (MTT)): 254 µg/mL | MIC [12]: > 200 µg/mL

CO[C@H]1/C=C/O[C@@]2(C)Oc3c(C)c(O)c4c(O)c(c(/C=N/N5CCN(C)CC5)c(O)c4c3C2=O)NC(=O)/C(C)=C\C=C\[C@H](C)[C@H](O)[C@@H](C)[C@@H](O)[C@@H](C)[C@H](OC(C)=O)[C@@H]1C [Rifampicin, rifampicin, reference compound]
MBC ([13]; MSSA biofilm, triplicate runs listed singly): 100 µg/mL (≈ 122 µM) | MIC ([13]; MSSA biofilm, triplicate runs listed singly, read-out: MBIC = Minimum Biofilm Inhibitory Concentration): 0.4 µg/mL (≈ 0.486 µM) | MIC ([14]; S. epidermidis biofilm, triplicate runs listed singly): < 0.2 µg/mL | MBIC = Minimum Biofilm Inhibitory Concentration ([15]; MRSA biofilm, triplicate runs listed singly): <0.2 µg/mL | MIC ([15]; Staphylococcus aureus, MRSA biofilm, triplicate runs listed singly): < 0.2 µg/mL

CN[C@H](CC(C)C)C(=O)N[C@H]1C(=O)N[C@@H](CC(N)=O)C(=O)N[C@H]2C(=O)N[C@H]3C(=O)N[C@H](C(=O)N[C@H](C(=O)O)c4cc(O)cc(O)c4-c4cc3ccc4O)[C@H](O)c3ccc(c(Cl)c3)Oc3cc2cc(c3O[C@@H]2O[C@H](CO)[C@@H](O)[C@H](O)[C@H]2O[C@H]2C[C@](C)(N)[C@H](O)[C@H](C)O2)Oc2ccc(cc2Cl)[C@H]1O [Vancomycin, vancomycin, reference compound]
MBC [13]: > 400 µg/mL | MBC ([14]; read-out: MBEC = Minimum Biofilm Eradication Concentration): > 400 µg/mL | MIC [14]: 12.5 µg/mL (≈ 8.63 µM) | MBC ([15]; Staphylococcus aureus, read-out: MBEC = Minimum Biofilm Eradication Concentration): > 400 µg/mL | MIC ([15]; Staphylococcus aureus): 1.6 µg/mL (≈ 1.1 µM)
